Data: publication PMC10056636, “3-Amino-Substituted Analogues of Fusidic Acid as Membrane-Active Antibacterial Compounds” (Membranes, 2023)
Values after ≈ are worked out from the molar mass of the structure shown. Read-outs that look alike come from different tables or passages of the source.

What was measured:
[1] = Hemolysis assay; format: cell-based, human; settings: human, Dmax (maximal percentage of hemolysis)
Procedure: (§1) Human whole blood was washed three times with 3 volumes of 0.9% NaCl and then resuspended in the same medium to a concentration of 0.5 × 10^8 cells/mL, as determined by manual cell count in a Neubauer hemocytometer. The washed cells were then added to 384-well plates containing the test compounds to a final volume of 50 µL. After shaking on a plate shaker for 10 min, the plates were incubated for 1 h at 37 °C. After incubation, the plates were centrifuged at 1000× g for 10 min to pellet the cells and debris; 25 µL of the supernatant was then transferred to a polystyrene 384-well assay plate.
(§2) Hemolysis was monitored by measuring the supernatant absorbance at […] (OD405). The absorbance was measured using a Tecan M1000 Pro monochromator plate reader. HC10 and HC50 (10% and 50% hemolysis concentrations, respectively) were calculated by curve fitting of inhibition vs. log(concentration) using a sigmoidal dose–response function with variable fitting values for top, bottom, and slope. In addition, the maximal percentage of hemolysis is reported as DMax, indicating any compounds with partial hemolysis. The curve fitting was implemented using Pipeline Pilot’s dose–response component. […] Any value with > indicated sample with no activity (low DMax value) or samples with HC10 values above the maximum tested concentration (higher DMax value).
(§3) In addition, samples were flagged as partially hemolytic if DMax ≥ 50%, even for HC10 > the maximum tested concentration. […]

[2] = system: human red blood cells; experiment: Hemolysis assay; format: cell-based; settings: human, 1 h
Procedure: as §1, §2, §3

[3] = system: Cryptococcus neoformans (ATCC 208821); experiment: Antifungal growth inhibition (MIC, CO-ADD); settings: inhibition ≥70%, two replicates per cell
Procedure: Antimicrobial, cytotoxicity, and hemolytic activity screening of the synthesized derivatives was carried out in the CO-ADD (The Community for Antimicrobial Drug Discovery) (http://www.co-add.org, accessed on 24 November 2020) and included analysis for antibacterial properties, cytotoxicity, and hemolytic activity.
The hit confirmation test included five bacteria, Escherichia coli (ATCC 25922), Klebsiella pneumoniae (ATCC 700603), Acinetobacter baumannii (ATCC 19606), Pseudomonas aeruginosa (ATCC 27853), and Staphylococcus aureus (ATCC 43300), and two fungi, Candida albicans (ATCC 90028) and Cryptococcus neoformans (ATCC 208821). […] The compounds were also screened for hemolysis of human red blood cells (human whole blood, strain ARCBS 5400 00150).
Samples were prepared in DMSO and water to a final testing concentration of 32 µg/mL or 20 µM (unless otherwise indicated in the data sheet) and serially diluted twofold up to 8 times. Each sample concentration was prepared in 384-well plates: non-binding surface plate (NBS; Corning 3640) for each bacterial/fungal strain, tissue-culture treated (TC-treated; Corning 3712/3764) black for mammalian cell types and polypropylene 384-well plates (PP; Corning 3657) for hemolysis assays. The final DMSO concentration was maintained to a maximum of 0.5%. All sample preparation procedures were performed using liquid-handling robots. All screening was performed as two replica (n = 2), with both replicas on different assay plates, but from single plating and performed in a single screening experiment (microbial incubation). In addition, two values are used as quality controls for individual plates: Z′-Factor [1 − (3* (sd(NegCtrl) + sd(PosCtrl))/(average(PosCtrl)-average(NegCtrl)))] and standard antibiotic controls at different concentrations (>MIC and <MIC).
Fungi strains were cultured for 3 days on yeast extract-peptone dextrose (YPD) agar at 30 °C. A yeast suspension of 1 × 10^6 to 5 × 10^6 CFU/mL (as determined by OD530) was prepared from five colonies. The suspension was subsequently diluted and added to each well containing a test compound, giving a final cell density of fungi suspension of 2.5 × 10^3 CFU/mL and a total volume of 50 µL. All plates were covered and incubated at 35 °C for 36 h without shaking.
The absorbance was measured using a Biotek Multiflo Synergy HTX plate reader. In both cases, the percentage of growth inhibition was calculated for each well, using the negative control (media only) and positive control (fungi without inhibitors) in the same plate. […] In addition, the maximal percentage of growth inhibition is reported as DMax, indicating any compounds with marginal activity.
Fluconazole was used as a positive fungal inhibitor standard for C. albicans and C. neoformans. […] The quality control (QC) of the assays was performed using Z′-factors calculated from the negative (media only) and positive controls (bacterial, fungal, or cell culture without inhibitor) and the standards.

[4] = system: Candida albicans (ATCC 90028); experiment: Antifungal growth inhibition (MIC, CO-ADD); format: cell-based; settings: C. albicans, inhibition ≥80%, two replicates per cell
[5] = in vitro; format: cell-based, human; settings: human, CC50
Procedure: (§4) HEK293 cells were counted manually in a Neubauer hemocytometer and then plated in 384-well plates containing the test compounds to give a density of 5000 cells per well in a final volume of 50 µL. DMEM supplemented with 10% FBS was used as the growth medium, and the cells were incubated together with the compounds for 20 h at 37 °C in 5% CO2.
(§5) The cytotoxicity (or cell viability) was measured by fluorescence, ex: 560/10 nm, em: 590/10 nm (F560/590), after addition of 5 µL of 25 µg/mL resazurin (2.3 µg/mL final concentration) and after incubation for further 3 h at 37 °C in 5% CO2. The fluorescence intensity was measured using a Tecan M1000 Pro monochromator plate reader with automatic gain control. The CC50 (50% cytotoxicity concentration) values were calculated by curve fitting of inhibition vs. log(concentration) using a sigmoidal dose–response function, with variable fitting values for bottom, top, and slope. In addition, the maximal percentage of cytotoxicity is reported as DMax, indicating any compounds with partial cytotoxicity. The curve fitting was implemented using Pipeline Pilot’s dose–response component. The results were similar to those obtained by other curve-fitting tools, such as GraphPad’s Prism and IDBS’s XlFit. Any value with > indicated samples with no activity (low DMax value) or samples with CC50 values above the maximum tested concentration (higher DMax value).
(§6) In addition, samples were flagged as partially cytotoxic if DMax ≥ 50%, even for CC50 > the maximum tested concentration.
(§7) Tamoxifen served as a positive cytotoxicity standard. Melittin was used as a positive hemolytic standard.

[6] = system: human embryonic kidney cell line HEK293 (ATCC CRL-1573); experiment: in vitro; format: cell-based; settings: human, 20 h
Procedure: as §4, §5, §6, §7

[7] = system: Acinetobacter baumannii (ATCC 19606); experiment: Antibacterial whole-cell growth inhibition (MIC, CO-ADD); format: cell-based; settings: A. baumannii, two replicates per cell
Procedure: (§8) Antibacterial screening was carried out by the serial dilution method. All bacteria were cultured in the cation-adjusted Mueller Hinton broth (CAMHB) at 37 °C overnight. A sample of each culture was then diluted 40-fold in fresh broth and incubated at 37 °C for 1.5–3 h. The resultant mid-log phase cultures were diluted (CFU/mL measured by OD600) and then added into each well containing a test compound, giving a cell density of 5 × 10^5 CFU/mL and a total volume of 50 µL. All the plates were covered and incubated at 37 °C for 18 h without shaking.
(§9) Inhibition of bacterial growth was determined by measuring the absorbance at 600 nm (OD600) with a Tecan M1000 Pro monochromator plate reader. […]

[8] = system: Pseudomonas aeruginosa (ATCC 27853); experiment: as above; format: cell-based; settings: P. aeruginosa, two replicates per cell
Procedure: as §8, §9

[9] = system: Escherichia coli (ATCC 25922); experiment: as above; format: cell-based; settings: E. coli, two replicates per cell
Procedure: as §8, §9

[10] = system: Staphylococcus aureus (ATCC 43300) (MRSA); experiment: as above; format: cell-based; settings: for MIC: S. aureus (MRSA) ATCC 43300, inhibition ≥80%, two replicates (n = 2); for primary screening: antimicrobial activity: S. aureus (MRSA), primary screen at 32 μg/mL
Procedure: as §8, §9

[11] = Ion permeability, pore formation and rupture of planar lipid bilayers
Procedure: (§10) Synthetic 1,2-diphytanoyl-sn-glycero-3-phosphocholine (DPhPC) and 1,2-diphytanoyl-sn-glycero-3-phospho-(1′-rac-glycerol) (DPhPG) were purchased from Avanti® Polar Lipids (Avanti Polar Lipids, Inc., Alabaster, AL, USA). A KCl solution (0.1 M) was buffered with 5 mM HEPES, pH 7.4. Bilayer lipid membranes were prepared from DPhPC or DPhPG using a monolayer-opposition technique on a 50 µm-diameter aperture in a 10 µm-thick Teflon film separating the cis- and trans-compartments of the Teflon chamber. Experiments were performed in chambers containing 0.1 M KCl, 5 mM Hepes-KOH, pH 7.4.
(§11) The test compounds (4, 20, 22) were added to the cis-chamber as 10 mg/mL solutions in ethanol (to mimic the physiologically relevant conditions) up to the final concentrations and the effects of the compounds on the ion permeability of the model lipid membranes were studied. Ag/AgCl electrodes with 1.5% agarose/2 M KCl bridges were used to apply the transmembrane voltage (V) and measure the transmembrane current (I). ‘Positive voltage’ refers to the case in which the cis-side compartment is positive with respect to the trans-side. All experiments were performed at room temperature.
(§12) The current was measured using an Axopatch 200B amplifier (Molecular Devices, LLC, Orlean, CA, USA) in voltage clamp mode. Data were digitized using a Digidata 1440A and analyzed using pClamp 10.0 (Molecular Devices, LLC, Orlean, CA, USA) and Origin 8.0 (OriginLab Corporation, Northampton, MA, USA). The data were acquired at a sampling frequency of 5 kHz using low-pass filtering at 200 Hz.
(§13) The threshold concentrations (Cbr) of the derivatives required to rupture the bilayers composed of DPhPC or DPhPG at a transmembrane voltage of 100 mV were determined. Cbr-values were averaged from 3 to 4 bilayers and presented as mean ± standard error (p ≤ 0.05).
Pore-forming ability of compound 22 was studied by applying transmembrane voltages in a range of 50–200 mV with 50 mV step and by increasing the derivative concentration in the bilayer bathing solution from 10 to 150 µg/mL.

[12] = Measurement of the membrane boundary potential (K+-nonactin conductance); settings: DPhPG, 0.1 M KCl, pH 7.4, 50 mV
Procedure: Measurement of the membrane boundary potential. Virtually solvent-free planar lipid bilayers were made of DPhPC or DPhPG as described above. After the membrane was completely formed and stabilized and its stability was assessed by applying voltages in a range from −200 to 200 mV with a 50 mV step for 5–10 min, stock solutions of nonactin A (7 μg/mL in ethanol) were added to the bathing solution (0.1 M KCl, 5 mM HEPES, pH 7.4) in both chamber compartments to obtain a final concentration ranging from 0.1 to 1 μM.
Test derivatives (4, 20, 22) as 10 mg/mL solutions in ethanol were added to both compartments in a concentration range from 5 µg/mL to Cbr in increments of 25 µg/mL.
The conductance of the bilayers was determined by measuring the membrane conductance (G) at a constant transmembrane voltage of 50 mV. In the subsequent calculations, the membrane conductance was assumed to be related to the membrane boundary potential (φb), the potential drop between the aqueous solution and the membrane hydrophobic core, by the Boltzmann distribution (1) Gm/Gm0=exp(eΔφb/kT) where Gm and Gm^0 are the steady-state membrane conductances induced by K^+-nonactin in the presence and absence of test compounds, respectively; e, k, and T have their usual meanings.
The changes in the membrane boundary potential for the defined experimental conditions were averaged from 4 bilayers and presented as mean ± standard deviation (p ≤ 0.05).

[13] = Ion permeability and rupture of planar lipid bilayers
Procedure: as §10, §11, §12, §13

[14] = Staphylococcus aureus, read-out: MIC

| Compound | hemolysis at 1 h [1] [%] | Dmax (maximal percentage of hemolysis) [2] [%] | HC50 [2] | CC50 at 20 h [5] [µg/mL] | CC50 [6] | MIC [10] | MIC [10, 14] [µg/mL] | melting point [°C] | primary screening: antimicrobial activity [10] | further results |
| --- | --- | --- | --- | --- | --- | --- | --- | --- | --- | --- |
| CC(=O)O[C@H]1C[C@@]2(C)[C@@H](C[C@@H](O)[C@H]3[C@@]4(C)CC[C@@H](O)[C@@H](C)[C@@H]4CC[C@@]32C)/C1=C(\CCC=C(C)C)C(=O)O [Fusidic acid] | 10 | 9.7 | >32 >32 µg/mL | > 32 | >32 >32 µg/mL | ≤0.25 ≤0.25 µg/mL | ≤ 0.25 |  |  | MIC ([3]; C. neoformans): >32 >32 µg/mL; MIC ([3]; Cryptococcus neoformans, ATCC208821, C. neoformans): > 32 µg/mL; MIC [4]: >32 >32 µg/mL; MIC ([4]; Candida albicans, ATCC90028, read-out: MIC): > 32 µg/mL; MIC [7]: >32 >32 µg/mL; MIC ([7]; Acinetobacter baumannii, ATCC19606, read-out: MIC): > 32 µg/mL; MIC [8]: >32 >32 µg/mL; MIC ([8]; Pseudomonas aeruginosa, ATCC27853, read-out: MIC): > 32 µg/mL; MIC [9]: >32 >32 µg/mL; MIC ([9]; Escherichia coli, ATCC25922, read-out: MIC): > 32 µg/mL |
| CC(=O)O[C@H]1C[C@@]2(C)[C@H](C[C@@H](O)[C@@H]3[C@@]4(C)CC[C@H](NC(=O)c5cnccn5)[C@@H](C)C4CC[C@@]32C)/C1=C(\CCC=C(C)C)C(=O)O (stereo partly drawn) [Compound 3, (2Z)-2-{(3β,4α,8α,11α,14β,16β)-16-(acetyloxy)-11-hydroxy-4,8,10,14-tetramethyl-3-[(pyrazin-2-ylcarbonyl)amino]gonan-17-ylidene}-6-methylhept-5-enoic acid] | 2.2 | 1.4 | >32 >32 µg/mL | > 32 | >32 >32 µg/mL | ≤0.25 ≤0.25 µg/mL | 0.25 (≈ 0.402 µM) | 162 to 164 | showed antimicrobial activity |  |
| COC(=O)/C(CCC=C(C)C)=C1\[C@@H](OC(C)=O)C[C@@]2(C)[C@@H]1C[C@@H](O)[C@@H]1[C@@]3(C)CC[C@H](NC(=O)c4cnccn4)[C@@H](C)C3CC[C@@]12C (stereo partly drawn) [Compound 4, Methyl (2Z)-2-{(3β,4α,8α,11α,14β,16β)-16-(acetyloxy)-11-hydroxy-4,8,10,14-tetramethyl-3-[(pyrazin-2-ylcarbonyl)amino]gonan-17-ylidene}-6-methylhept-5-enoate] | 3.9 |  | >32 >32 µg/mL | 24 (≈ 37.7 µM) | > 32 µg/mL | ≤0.25 ≤0.25 µg/mL | 0.25 (≈ 0.393 µM) | 151 to 153 | showed antimicrobial activity | concentration up to which ionic permeability of lipid bilayers is not affected ([11]; DPhPG): up to 170 μg/mL; formation of ion-permeable pores ([11]; DPhPG bilayers): not able to form transient ion-permeable pores; Cbr (threshold concentration required to rupture the bilayer) ([11]; DPhPG, 0.1 M KCl, pH 7.4, 100 mV): 163 ± 11 µg/mL; −Δφb(max) (maximum decrease in the membrane boundary potential) [12]: 21 ± 5 mV; concentration up to which addition did not increase the ion permeability of the lipid bilayers ([13]; DPhPC uncharged membranes): ≤ 225 µg/mL; Cbr (threshold concentration required to rupture the bilayer) ([13]; DPhPC, 0.1 M KCl, pH 7.4, 100 mV): 225 ± 15 µg/mL |
